In ChEMBL document CHEMBL2150977, “Synthesis of highly water-soluble fibrate derivatives via BGLation” (Bioorg Med Chem Lett, 2012):
Activity calls are given as the source filed them. The calls are words filed in the database; no cut-off is given here.

How the values were obtained:
[1] = Aqueous solubility of the compound; format: physicochemical; conditions: water
Rattus norvegicus [2] = assay: Antihyperlipidemic activity in Sprague-Dawley rat assessed as decrease in plasma triglyceride level at […], po administered QD for 8 days relative to vehicle-treated control; format: functional, organism-based
Rattus norvegicus [3] = assay: Drug metabolism in Sprague-Dawley rat assessed as fenofibric acid level in plasma at 100 mg/kg, po after 4 hrs; format: ADME, organism-based; parameters: dose 100 mg/kg, route oral; conditions: in vivo
Rattus norvegicus [4] = assay: Toxicity in Sprague-Dawley rat assessed as aberrant behaviour at […], po relative to vehicle-treated control; format: organism-based; conditions: in vivo
Rattus norvegicus [5] = assay: Toxicity in Sprague-Dawley rat assessed as body weight loss at […], po relative to vehicle-treated control; format: organism-based; conditions: in vivo
Rattus norvegicus [6] = assay: Drug metabolism in Sprague-Dawley rat assessed as fenofibric acid level in plasma at 150 mg/kg, po after 4 hrs; format: ADME, organism-based; parameters: dose 150 mg/kg, route oral; conditions: in vivo

SMILES	solubility [1] [µg/mL]	Activity (Rattus norvegicus [2])	Drug metabolism (Rattus norvegicus [3])	Activity (Rattus norvegicus [4])	Activity (Rattus norvegicus [5])	Drug metabolism (Rattus norvegicus [6])
CC(C)(Oc1ccc(CCNC(=O)c2ccc(Cl)cc2)cc1)C(=O)OC(COC(CO)CO)COC(CO)CO	> 1000					
CC(C)OC(=O)C(C)(C)Oc1ccc(C(=O)c2ccc(Cl)cc2)cc1 [FENOFIBRATE]		Active	Active			
CC(C)(Oc1ccc(C(=O)c2ccc(Cl)cc2)cc1)C(=O)OCCO		Active		Non-toxic	Non-toxic	
CC(C)(Oc1ccc(C(=O)c2ccc(Cl)cc2)cc1)C(=O)OC(COC(CO)CO)COC(CO)CO	> 1000	Active		Non-toxic	Non-toxic	Active
CC(C)(Oc1ccc(Cl)cc1)C(=O)OC(COC(CO)CO)COC(CO)CO	> 1000					
CC(C)(Oc1ccc(C(=O)c2ccc(Cl)cc2)cc1)C(=O)OC(CO)CO		Active		Non-toxic	Non-toxic	
